Measurements taken from US20240271102A1, “METHODS FOR ENGINEERING AND USE OF CILIATED ORGANOIDS HAVING NATIVE-LIKE, APICAL-OUT POLARITY” (Carnegie Mellon University, priority 2021, published 2024).
Values belong to the compound of their own block, whether it stands above or below them.

Key:
Format in all cases: cell-based, human
[1] = tested on: apical-out airway organoids (AOAOs); assay: Cilia beating frequency (CBF) by kymograph analysis
Description: Imaging the AOAO cilia beating for kymographs generation and cilia beating frequency (CBF) calculation: Mature AOAOs (day-21 to day-28 of differentiation) were transferred to a 1.5-mL Eppendorf tube and kept on ice. Cold collagen type 1 was neutralized with the neutralization solution, added to the organoids at a final concentration of 2 mg/mL, and the entire AOAO-collagen mixture was transferred to the glass bottom region of a MatTek dish. The MatTek dish containing organoids in collagen was kept on ice for additional 10 minutes until the organoids settled down to the bottom of the dish. The MatTek dish was then placed on a heat plate set to 37° C. for 10 minutes. 1 mL of differentiation medium was placed in the dish before capturing video recording of cilia beating using on a Zeiss AxioObserver Z1 microscope with a 100×, 1.45 NA objective and pco.edge 5.5 camera. The high-speed video recordings of cilia beating were preprocessed using the previously described method to smoothen noise and variations in contrast. Additionally, the Contrast Limited Adaptive Histogram Equalization (CLAHE) function in Python v. […] The normal vector with respect to the organoid surface for each region of interest was calculated. […] The peaks in the kymograph were counted and divided by the duration of the video to obtain the CBF value for the organoid. […]

[2] = tested on: apical-out airway organoids (AOAOs); assay: AOAO rotation / angular velocity of […]-embedded organoids (computer vision tracking)
Description: © embedding of AOAOs: Mature AOAOs at day-21 to day-28 of differentiation were collected together and embedded in […]® matrices. For […]® embedding, collected AOAOs were resuspended in 40% (vol/vol) GFR-[…]® in differentiation medium, which was kept on a heat plate set to 37° C. for 10 minutes to enable effective gelation. Upon matrix gelation, differentiation medium was added to the top of the AOAO-containing gel matrices. All matrix-embedded AOAOs were maintained at 37° C. with 5% CO2. The next day, 30-second video recordings of AOAOs were captured using EVOS FL Auto 2 Imaging System. […] The distance covered by each correspondence was measured and converted to the rotational velocity (Sun et al., in 2010 IEEE Computer Society Conference on Computer Vision and Pattern Recognition, 2432-2439, 2010). […] The difference in rotational and angular velocity was quantified by calculating the mean normalized deviation of velocity (rotational and angular) from the mean (FIG. 19E) using the following equation: Treating AOAOs with Paclitaxel or EHNA for angular velocity analysis: Mature AOAOs (day-21 to day-28 of differentiation) were embedded in […]® for two days before treatment with desired chemical inhibitors of cilia motility. […]

NHBE cells = assay: Spheroid formation of NHBEs on U-bottom cell repellent surface; conditions: 10 μM Y27632 in differentiation medium at initial seeding, day 1
Description: Mucociliary differentiation of NHBEs with apical-out polarity was then carried out. Once the cells reached about 75% confluency, the medium was aspirated and cells were rinsed once with DPBS. Trypsin-EDTA (0.25%) was added and incubated at 37° C. After all the cells had lifted, complete RPMI medium was added to neutralize the trypsin. The cell suspension was transferred into a 15 mL centrifuge tube, which was then centrifuged at 220×g for 5 minutes at room temperature. The cell pellet was resuspended to a cell density of 5000 cells/mL in differentiation medium containing 10 μM of Y27632. Aliquots (100 μL) of the cell suspension were then transferred to each well of a 96-well cell-repellent microplate. 50 μL of the media were pipetted out from each well and replaced with fresh differentiation medium every other day. Apical-out organoid formation was examined with different starting NHBE cell numbers (1000, 500, 200, 100, 50, and 20 cells per well) on a 96-well U-bottom cell repellent surface. Studies also were conducted to test whether the addition of 10 μM Y27632 into the differentiation medium for initial seeding improved cell viability and spheroid formation (FIGS. 3A-3F and 4A-4F). […] It is noted that in other experiments, however, a density of 1000 cells per well did support favorable spheroid formation.

[3] = tested on: apical-out airway organoids (AOAOs); assay: MUC5AC goblet cell immunofluorescence staining of apical-out airway organoids
Description: Differentiation of airway basal cells into apical-out airway organoids: Human ABSCs (P2) were trypsinized and resuspended (5000 cells/ml) in differentiation medium ([…]™-ALI Medium) supplemented with 10 μM Y27632. 100 μL of resuspended hABSCs were placed per well in a 96-well cell-repellent microplate (GreinerBio-One, 655970). The cultures were maintained at 37° C. with 5% CO2 for 21-28 days. […]

Compound: CCCCCC[C@@H]([C@@H](C)O)n1cnc2c(N)ncnc21 (racemic) [EHNA, erythro-9-(2-hydroxy-3-nonyl)adenine]
- cilia beating frequency (CBF) ([1]; 1 mM EHNA, 2 hours): inhibitory effect
- change in organoid angular velocity ([2]; EHNA 0, 0.1, 0.3 and 1 mM, 2 hours, mature AOAOs): dose-dependent reduction in organoid angular velocity

Compound: C[C@@H](N)[C@H]1CC[C@H](C(=O)Nc2ccncc2)CC1 [Y27632]
- spheroid formation with versus without Y27632 (NHBE cells): no significant differences

- cilia beating frequency (CBF) ([1]; paclitaxel 20 μM, 24 hours): dramatically reduced CBF
Compound: CC(=O)O[C@H]1C(=O)[C@@]2(C)[C@H]([C@H](OC(=O)c3ccccc3)[C@]3(O)C[C@H](OC(=O)[C@H](O)[C@@H](NC(=O)c4ccccc4)c4ccccc4)C(C)=C1C3(C)C)[C@]1(OC(C)=O)CO[C@@H]1C[C@@H]2O [paclitaxel, Paclitaxel]
- organoid angular velocity over time ([2]; paclitaxel 20 μM, monitored periodically for 24 hours): progressive reduction of organoid angular velocity

Compound: IL-13: pro-inflammatory cytokine interleukin-13
- goblet cells (MUC5AC+) in Day 21 AOAOs ([3]; IL-13 5 ng/mL in differentiation medium during the entire differentiation): massive induction of goblet cells
- goblet cells (MUC5AC expression) ([3]; IL-13 at concentration as low as 1 ng/mL): exhibited goblet cells
